# Laboratory results as given in PMC3265452 (PLoS Neglected Tropical Diseases, 2012).
# Where a name gives a salt, the structure may show the parent alone.
# Target: AaDOP2 (Aedes aegypti, UniProt H6D5H2)
# Assay: AaDOP2 antagonist screen of the LOPAC1280 library (HEK-CRELuc-Aadop2 cells, luminescence)
# Type: cell-based
# Conditions: not given
# Sequence of AaDOP2 (H6D5H2 1-476): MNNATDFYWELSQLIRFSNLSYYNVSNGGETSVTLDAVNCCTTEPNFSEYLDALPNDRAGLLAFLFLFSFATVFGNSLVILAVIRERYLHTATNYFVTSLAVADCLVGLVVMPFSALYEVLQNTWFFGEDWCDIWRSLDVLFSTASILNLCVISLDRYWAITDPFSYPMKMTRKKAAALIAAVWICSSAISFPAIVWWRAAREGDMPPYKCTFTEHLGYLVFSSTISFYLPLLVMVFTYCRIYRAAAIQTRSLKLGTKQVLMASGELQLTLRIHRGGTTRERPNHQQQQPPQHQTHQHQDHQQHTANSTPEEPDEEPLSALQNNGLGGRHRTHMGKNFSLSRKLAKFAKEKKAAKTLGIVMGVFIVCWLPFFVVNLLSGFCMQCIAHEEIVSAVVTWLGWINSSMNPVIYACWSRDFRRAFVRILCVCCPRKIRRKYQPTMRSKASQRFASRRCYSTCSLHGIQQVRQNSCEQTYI
Molecule,"Compound effect (percent receptor signaling in presence of test compound, relative lux units relative to the SCH23390 control)",% of the SCH23390 effect (percent inhibition of receptor response relative to the SCH23390 control) [%]
"CCCC(=O)NCCc1c2n(c3ccc(OC)cc13)Cc1ccccc1-2 [Compound 647, IIK7]",96,
"O=C1CN(/N=C/c2ccc(-c3ccc([N+](=O)[O-])cc3)o2)C(O)=N1 [Compound 427, Dantrolene sodium]",100,
"COC(=O)[C@@H]1[C@H]2C[C@H]3c4[nH]c5ccccc5c4CCN3C[C@@H]2CC[C@@H]1O [Compound 1273, Yohimbine hydrochloride]",85,
"Fc1ccc(C(c2ccc(F)cc2)N2CCN(C/C=C/c3ccccc3)CC2)cc1 [Compound 533, Flunarizine dihydrochloride]",71,
"CCOC(=O)[N-]c1cn(N2CCOCC2)n[o+]1 [Compound 753, Molsidomine]",98,
"O=C1CCC(c2ccc(-n3ccnc3)cc2)=NN1 [Compound 632, Imazodan]",92,
"CC(C(=O)O)c1ccc(CC2CCCC2=O)cc1 (centres unmarked) [Compound 692, loxoprofen]",92,
"Nc1ncnc2c1ncn2[C@@H]1O[C@H](COP(=O)(O)OP(=O)(O)OP(=O)(O)OP(=O)(O)OC[C@H]2O[C@@H](n3cnc4c(N)ncnc43)[C@H](O)[C@@H]2O)[C@@H](O)[C@H]1O [Compound 360, P1,P4-Di(adenosine-5')tetraphosphate triammonium]",75,
"Clc1ccc(C(c2ccccc2Cl)C(Cl)Cl)cc1 (centres unmarked) [Compound 242, 1-(2-Chlorophenyl)-1-(4-chlorophenyl)-2,2-dichloroethane]",108,
Picrotoxin [Compound 924],98,
"CN(C)c1ccc(O)c2c1C[C@H]1C[C@H]3[C@H](N(C)C)C(O)=C(C(N)=O)C(=O)[C@@]3(O)C(O)=C1C2=O [Compound 809, Minocycline hydrochloride]",94,
"NCCc1c[nH]c2ccccc12 [Compound 7, Tryptamine hydrochloride]",121,
"CC(C(=O)O)c1cccc(C(=O)c2ccccc2)c1 (centres unmarked) [Compound 685, Ketoprofen]",101,
"COc1ccc(CNC(=O)/C=C/c2ccc3[nH]cc(CCN(C)C)c3c2)cc1 [Compound 71, GR 4661]",114,
"Cc1nccc2c1[nH]c1ccccc12 [Compound 597, Harmane]",60,
"NC(N)=NOCC[C@H](N)C(=O)O.O=S(=O)(O)O [Compound 320, L-Canavanine sulfate]",92,
"NC(CCP(=O)(O)O)C(=O)O (racemic) [Compound 31, (±)-2-Amino-4-phosphonobutyric acid]",124,
"CCCCS(=N)(=O)CCC(N)C(=O)O (racemic) [Compound 168, DL-Buthionine-[S,R]-sulfoximine]",77,
"CN1CCc2ccccc2Cc2[nH]c3ccccc3c2CC1 [Compound 710, LE 300]",1,99
"N=C(N)NCCC[C@H](N)C(=O)O [Compound 56, L-Arginine]",94,
"N=C1Sc2ccccc2C2=NCCCN12 [Compound 935, PD 404,182]",101,

Molecule,"Compound effect (percent receptor signaling in presence of test compound, relative lux units relative to the SCH23390 control)",% of the SCH23390 effect (percent inhibition of receptor response relative to the SCH23390 control) [%]
"CCC(C)N(C)C(=O)c1cc2ccccc2c(-c2ccccc2Cl)n1 (centres unmarked) [Compound 220, PK 11195]",84,
"OC[C@H]1O[C@@H](n2cnc3c(NCCc4ccccc4)ncnc32)[C@H](O)[C@@H]1O [Compound 1007, N6-2-Phenylethyladenosine]",104,
"O=C1N(c2ccccc2)c2ccccc2C1(Cc1ccncc1)Cc1ccncc1 [Compound 730, Linopirdine]",106,
"O=C1NC(c2cccc([N+](=O)[O-])c2)=CCN1c1ccccc1O [Compound 443, Icilin]",87,
"NNCCc1ccccc1 [Compound 962, Phenelzine sulfate]",93,
"Oc1cc2c(cc1O)CN(C(=S)NCCc1ccc(Cl)cc1)CCC2 [Compound 342, Capsazepine]",69,
"CCOC(=O)C1=C[C@]2(CC)CCCN3CCc4c(n1c1ccccc41)[C@@H]32 [Compound 1254, Vinpocetine]",148,
"CCS(=O)(=O)Nc1cccc(C(=C2CCCCC2)c2cnc[nH]2)c1 [Compound 70, A-315456]",111,
"N=C(N)SCCc1cnc[nH]1 [Compound 673, Imetit dihydrobromide]",91,
"CCn1cc(C(=O)O)c(=O)c2cc(F)c(N3CCNC(C)C3)c(F)c21 (centres unmarked) [Compound 700, Lomefloxacin hydrochloride]",90,
"COc1cc(C[C@@H](C)N)c(OC)cc1I.Cl [Compound 464, ( R)-(-)-DOI hydrochloride]",69,
"C[C@](N)(Cc1ccc(O)cc1)C(=O)O [Compound 802, L-alpha-Methyl-p-tyrosine]",100,
"Cl.O=C(OC1CCN(CCCl)CC1)C(c1ccccc1)c1ccccc1 [Compound 461, 4-Diphenylacetoxy-N-(2-chloroethyl)piperidine hydrochloride]",99,
"CNC(=O)[C@H]1O[C@@H](n2cnc3c(NCc4cccc(I)c4)ncnc32)[C@H](O)[C@@H]1O [Compound 676, IB-MECA]",105,
"CC(=O)[C@H]1CC[C@H]2[C@@H]3CC[C@H]4C[C@H](O)CC[C@]4(C)[C@H]3CC[C@]12C [Compound 989, 5alpha-Pregnan-3alpha-ol-20-one]",73,
"O=S(=O)(c1cccc2cnccc12)N1CCNCC1 [Compound 634, HA-100]",71,
"CC[N+](C)(CC)CC(=O)Nc1c(C)cccc1C.[Cl-] [Compound 695, Lidocaine N-methyl hydrochloride]",92,
"NCC(=O)NCCC(c1ccccc1)c1ccccc1 [Compound 545, N-(3,3-Diphenylpropyl)glycinamide]",105,
"CN(C)c1nc(N(C)C)nc(N(C)C)n1 [Compound 97, Altretamine]",105,
"CC(=O)[C@H]1CC[C@H]2[C@@H]3CC=C4C[C@@H](OS(=O)(=O)[O-])CC[C@]4(C)[C@H]3CC[C@]12C.[Na+] [Compound 1017, Pregnenolone sulfate sodium]",107,

# Same assay, conditions: 10 µM compound, 300 nM dopamine, 2 hr; hit = compound effect <20
row,Molecule,"Compound effect (percent receptor signaling in presence of test compound, relative lux units relative to the SCH23390 control) [%]"
1,"O=Nc1ccc2oc(=O)ccc2c1 [Compound 871, 6-Nitroso-1,2-benzopyrone]",93
2,"O=C(O)CN(CCN(CC(=O)O)CC(=O)O)CCN(CC(=O)O)CC(=O)O [Compound 404, Diethylenetriaminepentaacetic acid]",118
3,"Cl.N=C(N)NN [Compound 99, Aminoguanidine hydrochloride]",107
4,"O=C(O)c1cc(=O)c2c(Cl)cc(Cl)cc2[nH]1 [Compound 460, 5,7-Dichlorokynurenic acid]",102
5,"Nc1ncnc2c1nc(Sc1ccc(Cl)cc1)n2C1OC2COP(=O)(O)O[C@H]2C1O (stereo in doubt) [Compound 251, 8-(4-Chlorophenylthio)-cAMP sodium]",97
6,"CCCCCCCCCCCCCCCCCCOCC(COP(=O)([O-])OCC[N+](C)(C)C)OC (centres unmarked) [Compound 475, ET-18-OCH3]",113
7,Pyrazinecarboxamide [Compound 966],79
8,"NC[C@H](O)c1ccc(O)c(O)c1.O=C(O)C(O)C(O)C(=O)O (racemic) [Compound 22, (±)-Norepinephrine (+)bitartrate]",102
9,"N[C@@H](Cn1cc(I)c(=O)[nH]c1=O)C(=O)O [Compound 1268, S-5-Iodowillardiine]",130
10,"O=C(O)/C=C\C(=O)O.c1cnc(N2CCN(Cc3ccc4c(c3)OCO4)CC2)nc1 [Compound 993, Piribedil maleate]",120
11,"Cl.NOCC(=O)O.NOCC(=O)O [Compound 49, O-(Carboxymethyl)hydroxylamine hemihydrochloride]",97
